Reference: ChEMBL document CHEMBL3407433, “A high-throughput screen reveals new small-molecule activators and inhibitors of pantothenate kinases” (J Med Chem, 2015)

Columns and labels:
Pantothenate kinase 1 [1] = target: T1, Pantothenate kinase 1 (Homo sapiens, UniProt Q8TE04); assay: Inhibition of Pank1beta (unknown origin) by Kinase Glo HTS assay
Pantothenate kinase 3 [2] = target: T2, Pantothenate kinase 3 (Homo sapiens, UniProt Q9H999); assay: Inhibition of Pank3 (unknown origin) by Kinase Glo HTS assay
Target sequence in this assay (Q9H999 whole entry): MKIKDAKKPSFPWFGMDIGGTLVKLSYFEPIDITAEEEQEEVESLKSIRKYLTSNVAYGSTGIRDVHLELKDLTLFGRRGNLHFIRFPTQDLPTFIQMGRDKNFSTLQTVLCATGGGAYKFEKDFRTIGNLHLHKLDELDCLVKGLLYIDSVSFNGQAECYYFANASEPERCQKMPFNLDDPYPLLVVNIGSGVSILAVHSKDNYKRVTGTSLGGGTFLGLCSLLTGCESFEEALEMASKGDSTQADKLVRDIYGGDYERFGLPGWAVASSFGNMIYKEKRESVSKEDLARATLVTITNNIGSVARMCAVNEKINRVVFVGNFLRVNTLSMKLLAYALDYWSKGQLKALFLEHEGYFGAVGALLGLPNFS

Pantothenate kinase 3 [3] = target: T2, Pantothenate kinase 3; assay: Activation of Pank3 (unknown origin) by Kinase Glo HTS assay
Target sequence in this assay (Q9H999 whole entry): as above

[4] = target: T3, Pantothenate kinase 2, mitochondrial (Homo sapiens, UniProt Q9BZ23); assay: Inhibition of purified human Pank2 using d-[1-14C]pantothenate as substrate after 10 mins by radiochemical enzyme assay
T3 sequence (Q9BZ23 whole entry): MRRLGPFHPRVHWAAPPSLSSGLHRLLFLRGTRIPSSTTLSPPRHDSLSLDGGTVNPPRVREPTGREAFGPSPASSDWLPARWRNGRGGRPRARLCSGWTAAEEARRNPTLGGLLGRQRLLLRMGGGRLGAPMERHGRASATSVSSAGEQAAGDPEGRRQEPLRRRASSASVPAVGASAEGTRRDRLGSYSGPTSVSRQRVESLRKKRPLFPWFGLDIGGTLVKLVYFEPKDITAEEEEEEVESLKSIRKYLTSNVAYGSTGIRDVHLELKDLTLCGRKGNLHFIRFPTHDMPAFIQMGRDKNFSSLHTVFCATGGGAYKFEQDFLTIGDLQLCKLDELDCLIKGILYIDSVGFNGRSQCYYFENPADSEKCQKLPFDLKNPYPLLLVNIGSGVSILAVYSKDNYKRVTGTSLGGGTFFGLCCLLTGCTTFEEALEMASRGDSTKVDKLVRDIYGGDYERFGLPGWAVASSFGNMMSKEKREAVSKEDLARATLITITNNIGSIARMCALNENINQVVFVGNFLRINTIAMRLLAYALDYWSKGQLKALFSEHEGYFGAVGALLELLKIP

Pantothenate kinase 3 [5] = target: T2, Pantothenate kinase 3
Target sequence in this assay (Q9H999 whole entry, looked up): as the sequence (Q9H999 whole entry) above
Description: Binding affinity to purified human Pank3 assessed as thermal stabilization by thermal shift assay in presence of 2 mM ATP/Mg2+

Pantothenate kinase 1 [6] = target: T1, Pantothenate kinase 1; assay: Inhibition of purified human Pank1beta using d-[1-14C]pantothenate as substrate after 10 mins by radiochemical enzyme assay
Pantothenate kinase 3 [7] = target: T2, Pantothenate kinase 3; assay: Inhibition of purified human Pank3 using d-[1-14C]pantothenate as substrate after 10 mins by radiochemical enzyme assay
Target sequence in this assay (Q9H999 whole entry): as the sequence (Q9H999 whole entry) above

T1 sequence (Q8TE04 whole entry): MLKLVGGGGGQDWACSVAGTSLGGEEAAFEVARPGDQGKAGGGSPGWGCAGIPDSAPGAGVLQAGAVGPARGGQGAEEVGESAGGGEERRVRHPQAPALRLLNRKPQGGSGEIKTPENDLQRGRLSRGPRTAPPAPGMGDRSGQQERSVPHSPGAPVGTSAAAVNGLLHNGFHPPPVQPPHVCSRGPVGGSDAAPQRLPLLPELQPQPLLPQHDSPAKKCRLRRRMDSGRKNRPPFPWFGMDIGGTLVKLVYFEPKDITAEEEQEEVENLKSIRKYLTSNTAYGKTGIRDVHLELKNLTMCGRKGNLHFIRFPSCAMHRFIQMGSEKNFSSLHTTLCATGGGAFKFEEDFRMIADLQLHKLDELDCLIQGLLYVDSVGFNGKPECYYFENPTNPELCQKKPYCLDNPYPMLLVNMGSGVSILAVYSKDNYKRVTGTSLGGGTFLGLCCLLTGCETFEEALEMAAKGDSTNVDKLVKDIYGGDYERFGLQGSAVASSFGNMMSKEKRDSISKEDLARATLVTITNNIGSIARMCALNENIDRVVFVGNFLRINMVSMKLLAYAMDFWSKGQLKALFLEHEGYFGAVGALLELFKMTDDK

## Cc1nc2c3cccnc3nn2c(C)c1CCC(=O)Nc1cccc(C(F)(F)F)c1
Pantothenate kinase 1 [1]
  IC50: 190 nM
Pantothenate kinase 3 [2]
  IC50: 830 nM

## CCS(=O)(=O)Nc1ccc(C(=O)NC2CC3CCC2C3)cc1 (stereo not drawn)
Pantothenate kinase 3 [2]
  IC50: 180 nM

## Cc1ccc(NC(=O)CCc2c(C)nc3c4cccnc4nn3c2C)cc1
Pantothenate kinase 1 [1]
  IC50: 11200 nM
Pantothenate kinase 3 [2]
  IC50: 25600 nM

## Cc1nc2c3cccnc3nn2c(C)c1CCC(=O)Nc1ccccc1F
Pantothenate kinase 1 [1]
  IC50: 550 nM
Pantothenate kinase 3 [2]
  IC50: 13600 nM

## O=C(Cc1ccc(F)cc1)N1CCN(c2nc3c(Cl)cccc3s2)CC1
Pantothenate kinase 3 [3]
  EC50: 1510 nM

## Cc1nc2c3cccnc3nn2c(C)c1CCC(=O)NCc1ccc(F)cc1
Pantothenate kinase 1 [1]
  IC50: > 56000 nM
Pantothenate kinase 3 [2]
  IC50: > 56000 nM

## Cc1nc2c3cccnc3nn2c(C)c1CCC(=O)N(C)c1ccccc1
Pantothenate kinase 1 [1]
  IC50: > 56000 nM
Pantothenate kinase 3 [2]
  IC50: > 56000 nM

## CC(=O)Nc1ccc(NC(=O)CCc2c(C)nc3c4cccnc4nn3c2C)cc1
Pantothenate kinase 1 [1]
  IC50: 640 nM
Pantothenate kinase 3 [2]
  IC50: 350 nM

## Cc1cccc(NC(=O)CCc2c(C)nc3c4cccnc4nn3c2C)c1
Pantothenate kinase 1 [1]
  IC50: 1570 nM
Pantothenate kinase 3 [2]
  IC50: 3840 nM

## CC(C)CCNC(=O)c1csc(-c2cccc(Cl)c2Cl)n1
Pantothenate kinase 3 [2]
  IC50: 2450 nM

## CC(C)c1ccc(NC(=O)CCc2nc(O)c3c4c(sc3n2)CCC4)cc1
Pantothenate kinase 3 [2]
  IC50: 120 nM

## CSc1ccc(NC(=O)CCc2c(C)nc3c4cccnc4nn3c2C)cc1
Pantothenate kinase 1 [1]
  IC50: 3240 nM
Pantothenate kinase 3 [2]
  IC50: 10500 nM

## COc1ccccc1NC(=O)CCc1c(C)nc2c3cccnc3nn2c1C
Pantothenate kinase 1 [1]
  IC50: > 56000 nM
Pantothenate kinase 3 [2]
  IC50: > 56000 nM

## COc1ccc(NC(=O)CCc2c(C)nc3c4cccnc4nn3c2C)cc1
Pantothenate kinase 1 [1]
  IC50: 6690 nM
Pantothenate kinase 3 [2]
  IC50: 11300 nM

## Cc1nc2c3cccnc3nn2c(C)c1CCC(=O)NC1CCCCC1
Pantothenate kinase 1 [1]
  IC50: 13600 nM
Pantothenate kinase 3 [2]
  IC50: > 56000 nM

## Cc1nc2c3cccnc3nn2c(C)c1CCC(=O)Nc1ccccc1
Pantothenate kinase 1 [1]
  IC50: 850 nM
Pantothenate kinase 3 [2]
  IC50: 24500 nM

## CCN(CC)c1ccc(CNc2nn[nH]n2)cc1
Pantothenate kinase 3 [3]
  EC50: 3430 nM

## COC(=O)c1cccc(NC(=O)CCc2c(C)nc3c4cccnc4nn3c2C)c1
Pantothenate kinase 1 [1]
  IC50: > 56000 nM
Pantothenate kinase 3 [2]
  IC50: > 56000 nM

## Cc1nc2c3cccnc3nn2c(C)c1CCC(=O)NCc1cccc(F)c1
Pantothenate kinase 1 [1]
  IC50: 15800 nM
Pantothenate kinase 3 [2]
  IC50: 10000 nM

## CC(C(=O)Nc1cc(Cl)ccc1Cl)N1CCC(C(=O)NCc2ccccc2)CC1 (stereo not drawn)
Pantothenate kinase 3 [3]
  EC50: 1720 nM

## CSc1cccc(NC(=O)CCc2c(C)nc3c4cccnc4nn3c2C)c1
[4]
  IC50: 92 nM
Pantothenate kinase 3 [5]
  Kapp: 0.3 µM
Pantothenate kinase 1 [1]
  IC50: 140 nM
Pantothenate kinase 1 [6]
  IC50: 70 nM
Pantothenate kinase 3 [7]
  IC50: 25 nM
Pantothenate kinase 3 [2]
  IC50: 360 nM

## COc1cccc(NC(=O)CCc2c(C)nc3c4cccnc4nn3c2C)c1
Pantothenate kinase 1 [1]
  IC50: 280 nM
Pantothenate kinase 3 [2]
  IC50: 1640 nM

## Cc1nc2c3cccnc3nn2c(C)c1CCC(=O)Nc1cccc(F)c1
Pantothenate kinase 1 [1]
  IC50: 240 nM
Pantothenate kinase 3 [2]
  IC50: 620 nM

## COc1cccc(CNC(=O)CCc2c(C)nc3c4cccnc4nn3c2C)c1
Pantothenate kinase 1 [1]
  IC50: > 56000 nM
Pantothenate kinase 3 [2]
  IC50: > 56000 nM

## Cc1nc2c3cccnc3nn2c(C)c1CCC(=O)Nc1ccc(F)cc1
Pantothenate kinase 1 [1]
  IC50: > 56000 nM
Pantothenate kinase 3 [2]
  IC50: > 56000 nM

## COc1ccc(CNC(=O)CCc2c(C)nc3c4cccnc4nn3c2C)cc1
Pantothenate kinase 1 [1]
  IC50: 14700 nM
Pantothenate kinase 3 [2]
  IC50: 25800 nM

## Cc1nc2c3cccnc3nn2c(C)c1CCC(=O)NCC1CCCCC1
Pantothenate kinase 1 [1]
  IC50: 1220 nM
Pantothenate kinase 3 [2]
  IC50: 40900 nM

## Cc1ccc(NC(=O)N2CCN(c3ccccc3F)CC2)c(C)c1
Pantothenate kinase 3 [3]
  EC50: 2410 nM
